Results: US20200239530A1, “COMPOUNDS AND METHODS OF MODULATING PROTEIN DEGRADATION” (Vividion Therapeutics, Inc., priority 2017, published 2020)
Values belong to the molecule of their own block, whether it stands above or below them.

Tests used:
Assay in all cases: Competitive cysteine profiling of cell lysate with desthiobiotin iodoacetamide probe (96-well sample prep)
Type in all cases: binding
[1] = target: T1, cysteine residue illustrated in Table 1A or Table 2A (Homo sapiens, UniProt P0C7V8); conditions: UniProt P0C7V8; 500 uM
T1 construct: Cells were resuspended in cold PBS on ice and sonicated with a probe sonicator to achieve lysis; endogenous in cells
Protocol: (§1) In some embodiments, the solution sample (e.g., cell sample, cell lysate sample, or comprising isolated proteins) is incubated with a compound of Formula (I) for analysis of protein-probe interactions. In some instances, the solution sample (e.g., cell sample, cell lysate sample, or comprising isolated proteins) is further incubated in the presence of an additional compound probe prior to addition of the compound of Formula (I). […] In such instances, the solution sample is incubated with a probe and a ligand for competitive protein profiling analysis.
(§2) The following 96-well sample prep protocol was used for sample preparation.
(§3) Cells were resuspended in cold PBS on ice and sonicated with a probe sonicator to achieve lysis. 200 μL of lysate containing 5 mg/ml proteome was treated with 2 μL of 100× compound stock in a 2-mL deep-well plate. The treated lysate was subsequently incubate at 25° C. for 1 hr with shaking at 600 rpm. The treated lysate was further incubated with 2 μL of 10 mM desthiobiotin iodoacetamide probe at 25° C. for 1 hr with shaking at 600 rpm. Next, the lysate was further treat with 20 μL of solution of PBS containing 11 mM MgSO4 and 2.5% Turbonuclease stock and incubated at 25° C. for 20 minutes with shaking at 600 rpm. 1.7 mL ice-cold acetone was added to each well and incubated at −20° C. for 2 hr, followed by max speed (4200 rpm) spin for 45 min. Acetone was then decanted and the plates were blotted to remove acetone. The plates were then dried in open air for 20 minutes. After drying, the plates were then covered with foil seal and stored at −80° C. overnight.
(§4) The next day, samples were re-suspended in 90 μL of solution of 9M urea, 50 mM ammonium bicarbonate and 10 mM DTT by incubating at 65C for 20 min with shaking at 1500 rpm. Next, samples were cooled to 37° C. and then 10 μL of 500 mM iodoacetamide solution (92.48 mg/ml) was added. The samples were then incubated at 37° C. for 30 min with shaking at 600 rpm.
(§5) ZEBA desalting plates were equilibrated 4 times using 250 μL of 2M urea, 50 mM ammonium bicarbonate solution followed by centrifugation at 1500 rpm for 2 minutes. After equilibration was complete, samples were applied to ZEBA desalting plate and spin at 1500 rpm for 2 min on top of 1 mL 96-well deep-well collection plate to buffer exchange samples. 4 μL of solution containing 25 mM CaCl2 and 0.25 mg/mL trypsin was added to the plate and the plate was then incubated at 37° C. for 2 hrs with shaking at 600 rpm. 300 μL of solution containing 5% high-capacity streptavidin agarose slurry in 25 mM Tris-HCl pH 7.5, 150 mM NaCl, and 0.1% NP-40 then added. The plate was incubated at 25° C. for 2 hrs with shaking at 600 rpm. Samples were transferred to 25 μm filter plate and spin at 1000 rpm for 2 min. Samples were then washed 3 times with 0.75 mL of wash buffer (25 mM Tris-HCl pH 7.5, 150 mM NaCl, and 0.1% NP-40) followed by washing 3 times with 0.75 mL PBS, and then 4 times with 0.75 mL water. After the washing step, samples were eluted into polypropylene 96-well plate by addition of 250 µL of 50% MeCN/water, 0.1% formic acid and allowed to gravity drip for 10 min, followed by centrifugation at 1000 rpm for 2 min. Speedvac was used to dry the plates at about 45° C. for […]. Then the plates were covered with foil seal and stored at −20° C.
(§6) Samples were resuspended by addition of 20 μl of 12.5% ACN, 0.1% formic acid solution, covered with foil seal, and incubated at 42° C. for 10 minutes with shaking at 600 rpm. Then add 30 μL of 0.1% formic acid solution was added and the plate was covered and incubated at 42° C. for 10 minutes with shaking at 600 rpm. Seal plate was then sealed with a 96-well silicon mat for analysis.

[2] = target: T2, cysteine residue illustrated in Table 1A or Table 2A (Homo sapiens, UniProt P40337); conditions: UniProt P40337
T2 construct: Cells were resuspended in cold PBS on ice and sonicated with a probe sonicator to achieve lysis; endogenous in cells
Protocol: as §1, §2, §3, §4, §5, §6

[3] = target: T3, cysteine residue illustrated in Table 1A or Table 2A (Homo sapiens, UniProt Q5H9S7); conditions: UniProt Q5H9S7; 100 uM
T3 construct: Cells were resuspended in cold PBS on ice and sonicated with a probe sonicator to achieve lysis; endogenous in cells
T3 sequence (Q5H9S7 1-520): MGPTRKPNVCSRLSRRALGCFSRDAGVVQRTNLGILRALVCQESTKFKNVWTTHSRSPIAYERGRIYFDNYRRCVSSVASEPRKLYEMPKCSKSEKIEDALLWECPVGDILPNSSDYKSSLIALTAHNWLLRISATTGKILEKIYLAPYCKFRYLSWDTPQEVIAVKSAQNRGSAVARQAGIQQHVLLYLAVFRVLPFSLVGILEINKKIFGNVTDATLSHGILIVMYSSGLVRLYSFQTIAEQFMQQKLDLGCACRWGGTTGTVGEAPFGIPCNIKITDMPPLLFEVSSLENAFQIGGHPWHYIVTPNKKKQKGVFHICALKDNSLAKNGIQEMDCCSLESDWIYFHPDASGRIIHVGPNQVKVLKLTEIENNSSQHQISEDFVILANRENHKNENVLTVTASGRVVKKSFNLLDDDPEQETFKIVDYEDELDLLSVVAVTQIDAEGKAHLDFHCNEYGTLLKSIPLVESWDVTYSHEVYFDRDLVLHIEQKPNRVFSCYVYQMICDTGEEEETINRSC
Protocol: as §1, §2, §3, §4, §5, §6

[4] = target: T4, cysteine residue illustrated in Table 1A or Table 2A (Homo sapiens, UniProt Q86X83); conditions: UniProt Q86X83
T4 construct: Cells were resuspended in cold PBS on ice and sonicated with a probe sonicator to achieve lysis; endogenous in cells
Protocol: as §1, §2, §3, §4, §5, §6

T1 sequence (P0C7V8 whole entry): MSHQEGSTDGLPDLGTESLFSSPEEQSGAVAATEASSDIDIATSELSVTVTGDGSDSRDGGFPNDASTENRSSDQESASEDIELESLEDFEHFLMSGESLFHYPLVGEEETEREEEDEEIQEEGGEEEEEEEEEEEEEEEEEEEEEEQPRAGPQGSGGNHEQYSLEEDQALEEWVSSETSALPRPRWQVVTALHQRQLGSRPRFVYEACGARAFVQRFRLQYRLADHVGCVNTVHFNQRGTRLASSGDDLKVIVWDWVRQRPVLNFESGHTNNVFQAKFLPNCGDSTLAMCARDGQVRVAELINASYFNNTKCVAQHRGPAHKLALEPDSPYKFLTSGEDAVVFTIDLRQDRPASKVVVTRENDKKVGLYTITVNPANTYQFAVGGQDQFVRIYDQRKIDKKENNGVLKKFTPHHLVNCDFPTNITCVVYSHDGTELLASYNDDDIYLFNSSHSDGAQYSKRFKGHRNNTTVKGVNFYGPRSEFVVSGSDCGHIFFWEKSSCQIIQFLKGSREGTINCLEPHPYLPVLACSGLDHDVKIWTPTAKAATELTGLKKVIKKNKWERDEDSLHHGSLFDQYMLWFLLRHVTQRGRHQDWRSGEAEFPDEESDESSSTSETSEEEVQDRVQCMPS
T4 sequence (Q86X83 whole entry): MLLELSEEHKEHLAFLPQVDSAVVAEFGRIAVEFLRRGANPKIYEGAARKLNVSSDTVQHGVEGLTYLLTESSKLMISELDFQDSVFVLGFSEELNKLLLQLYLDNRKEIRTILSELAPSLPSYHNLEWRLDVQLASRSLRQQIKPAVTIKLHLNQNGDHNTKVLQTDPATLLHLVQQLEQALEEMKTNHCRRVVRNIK
T2 sequence (P40337 whole entry): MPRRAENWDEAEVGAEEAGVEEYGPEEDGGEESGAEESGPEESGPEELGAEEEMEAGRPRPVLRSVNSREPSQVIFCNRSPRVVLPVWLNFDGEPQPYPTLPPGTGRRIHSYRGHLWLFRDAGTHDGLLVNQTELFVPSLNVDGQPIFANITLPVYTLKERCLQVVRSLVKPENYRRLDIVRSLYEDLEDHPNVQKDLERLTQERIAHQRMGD

SMILES: COc1ccc2c(c1)CCCN2C(=O)CCl [KB02]
KB02_500 uM_percent_inhibition [1]: 55% | KB02_100 uM_percent_inhibition ([2]; KB02 100 uM): 12% | KB02_100 uM_percent_inhibition [3]: 69% | KB02_100 uM_percent_inhibition ([4]; 100 uM): 31% | KB02_500 uM_percent_inhibition ([4]; 500 uM): 83%

KB05_500 uM_percent_inhibition [1]: 63% | KB05_100 uM_percent_inhibition ([2]; KB05 100 uM): 15% | KB05_500 uM_percent_inhibition ([2]; KB05 500 uM): 32% | KB05_100 uM_percent_inhibition [3]: 54% | KB05_100 uM_percent_inhibition ([4]; 100 uM): 38% | KB05_500 uM_percent_inhibition ([4]; 500 uM): 78%
SMILES: C=CC(=O)N(c1ccccc1)c1ccc(Br)cc1 [KB05]

SMILES: O=C(CCl)Nc1cc(C(F)(F)F)cc(C(F)(F)F)c1 [KBO3]
KB03_500 uM_percent_inhibition [1]: 41% | KB03_100 uM_percent_inhibition ([2]; KB03 100 uM): 19% | KB03_100 uM_percent_inhibition [3]: 39% | KB03_100 uM_percent_inhibition ([4]; 100 uM): 35% | KB03_500 uM_percent_inhibition ([4]; 500 uM): 72%
